Data published in US10517889B2, “Modulators of SMAD7 expression” (Ionis Pharmaceuticals, Inc., priority 2017, dated 2019).
Strand notation (5' to 3'): a small letter for the sugar, then the base; units joined by * are phosphorothioate-linked, units joined directly phosphodiester-linked; [ ] holds rarer units or linkages, { } end groups; capitals alone tell only the bases. k = constrained ethyl (cEt); [5mC] = 5-methylcytosine; d = 2'-deoxy (DNA)

test system: human SMAD7 mRNA; assay: Antisense inhibition of human SMAD7 mRNA expression in Hep3B cells by 3-10-3 cEt gapmers, 10,000 nM, electroporation (Example 2); format: cell-based; conditions: Hep3B cells, 10,000 nM antisense oligonucleotide, electroporation, approximately 24 hours, RT-PCR primer probe set RTS5062, relative to untreated control cells
In short: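 Hep3B cells (20,000/well) were electroporated with 10,000 nM 3-10-3 cEt gapmer (16-mer, phosphorothioate, 5-methylcytosines) and harvested after about 24 h. SMAD7 mRNA quantified by RT-qPCR with primer probe set RTS5062, normalized to total RNA by RiboGreen; percent inhibition relative to untreated cells.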

Substance | % Inhibition [%]
800014 (kT*kA*kA*dA*dG*d[5mC]*dA*dT*dA*dA*dA*dA*dT*k[5mC]*k[5mC]*kT; antisense) [compound 800014] | 21
800091 (antisense kT*kG*kA*d[5mC]*dA*d[5mC]*dA*dG*d[5mC]*d[5mC]*dA*dG*dA*kG*k[5mC]*kT) [compound 800091] | 0

same assay, conditions: Hep3B cells, electroporation with 10,000 nM antisense oligonucleotide, approximately 24 hours, RTS5062, percent inhibition of SMAD7 mRNA relative to untreated control cells

Substance | % Inhibition [%]
799545 (kT*k[5mC]*k[5mC]*d[5mC]*dA*d[5mC]*d[5mC]*d[5mC]*dT*dG*dG*dT*dG*k[5mC]*kT*k[5mC]; antisense) [compound 799545] | 9
799547 (kT*k[5mC]*k[5mC]*dT*dA*d[5mC]*dT*dG*dT*dT*dG*dG*d[5mC]*kA*kG*kT; antisense) [compound 799547] | 50
799532 (kG*k[5mC]*kA*dG*dA*dA*dG*dG*d[5mC]*d[5mC]*dA*d[5mC]*d[5mC]*k[5mC]*k[5mC]*k[5mC]; antisense) [compound 799532] | 21
799584 (kT*kA*kT*d[5mC]*dA*dA*dG*dA*dA*dG*dA*d[5mC]*dA*kA*kA*k[5mC]; antisense) [compound 799584] | 39
799551 (kT*kT*kA*d[5mC]*dA*dG*d[5mC]*dT*d[5mC]*d[5mC]*dT*dA*d[5mC]*kT*kG*kT; antisense) [compound 799551] | 12

same assay, conditions: Hep3B cells, electroporation with 10,000 nM antisense oligonucleotide, approximately 24 hours, SMAD7 mRNA by RT-PCR (RTS5062), relative to untreated control cells

Substance | % Inhibition [%]
799988 (kG*k[5mC]*kG*d[5mC]*dA*dA*dA*d[5mC]*dA*dT*d[5mC]*dA*d[5mC]*k[5mC]*kA*k[5mC]; antisense) [compound 799988] | 32
830014 (antisense kG*kG*kT*dG*d[5mC]*d[5mC]*dA*dG*dT*d[5mC]*dT*d[5mC]*dA*kA*kA*kT) [compound 830014] | 22
798834 (kA*kA*kA*dA*dG*d[5mC]*d[5mC]*dA*dT*dT*d[5mC]*d[5mC]*d[5mC]*k[5mC]*kT*kG; antisense) [compound 798834] | 55
830193 (antisense k[5mC]*kT*kT*dT*dT*d[5mC]*d[5mC]*dG*dG*dT*dA*dT*dT*kT*kT*k[5mC]) [compound 830193] | 35
800027 (k[5mC]*kG*k[5mC]*dT*dT*dT*dG*d[5mC]*dT*d[5mC]*d[5mC]*d[5mC]*dA*kG*kG*kG; antisense) [compound 800027] | 0
798751 (k[5mC]*k[5mC]*kG*dG*dG*d[5mC]*dA*dG*d[5mC]*dA*dG*dG*dA*kG*kG*k[5mC]; antisense) [compound 798751] | 0
799862 (k[5mC]*k[5mC]*k[5mC]*dA*d[5mC]*d[5mC]*dG*d[5mC]*dA*dT*dG*d[5mC]*dG*kA*kT*k[5mC]; antisense) [compound 799862] | 14
799427 (antisense kG*kT*k[5mC]*d[5mC]*dA*dG*dG*d[5mC]*d[5mC]*dT*d[5mC]*d[5mC]*d[5mC]*kA*kG*kA) [compound 799427] | 20
830034 (antisense kG*kG*k[5mC]*dT*dG*dA*dT*d[5mC]*dT*dG*dG*dA*dG*kA*kA*k[5mC]) [compound 830034] | 30
830092 (kA*kT*kT*dA*dG*dT*d[5mC]*d[5mC]*d[5mC]*dA*dT*dG*dA*kA*kA*k[5mC]; antisense) [compound 830092] | 43
830149 (antisense kA*kG*kG*dA*d[5mC]*dT*dG*dG*dT*d[5mC]*dT*dT*d[5mC]*kA*k[5mC]*k[5mC]) [compound 830149] | 47
799394 (antisense kA*k[5mC]*kA*dG*dA*dG*dA*dG*d[5mC]*dT*dG*dG*dG*kT*kA*kT) [compound 799394] | 33
772556 (antisense kA*kG*k[5mC]*dA*dG*dG*dA*dG*dG*d[5mC]*dA*d[5mC]*dG*k[5mC]*kG*kG) [compound 772556] | 43
799884 (k[5mC]*kT*k[5mC]*d[5mC]*dA*dG*dT*dT*dT*d[5mC]*dT*dA*dG*kA*kG*kG; antisense) [compound 799884] | 0
798698 (antisense kA*kG*k[5mC]*dT*d[5mC]*dG*d[5mC]*d[5mC]*dT*d[5mC]*d[5mC]*dT*d[5mC]*k[5mC]*kT*k[5mC]) [compound 798698] | 57

same assay, conditions: Hep3B cells, electroporation with 10,000 nM antisense oligonucleotide, approximately 24 hours, primer probe set RTS5062, relative to untreated control cells

Substance | % Inhibition [%] | % inhibition of SMAD7 mRNA expression [%]
798962 (antisense kT*kT*k[5mC]*d[5mC]*dA*dA*dA*dA*dA*dA*dA*d[5mC]*d[5mC]*k[5mC]*k[5mC]*k[5mC]) [compound 798962] | 2 | 
799008 (k[5mC]*k[5mC]*kA*dT*d[5mC]*dT*dG*d[5mC]*d[5mC]*dG*d[5mC]*dT*d[5mC]*k[5mC]*kT*kG; antisense) [compound 799008] |  | 60
799363 (kG*kA*kG*dT*dT*dA*dT*d[5mC]*d[5mC]*d[5mC]*d[5mC]*dA*dT*k[5mC]*kA*kA; antisense) [compound 799363] |  | 49
772532 (antisense k[5mC]*kA*kG*d[5mC]*dA*dG*dG*d[5mC]*dG*d[5mC]*dA*dG*dG*k[5mC]*kG*kA) [compound 772532] |  | 21
799197 (antisense k[5mC]*kT*k[5mC]*dA*dA*dA*dG*d[5mC]*dA*d[5mC]*dT*dA*d[5mC]*kA*kA*kT) [compound 799197] |  | 34
799032 (kA*kG*kG*dT*dA*d[5mC]*dT*dG*d[5mC]*d[5mC]*dT*d[5mC]*dT*kG*k[5mC]*k[5mC]; antisense) [compound 799032] |  | 42
790626 (kG*kA*kT*dA*dA*d[5mC]*dA*d[5mC]*d[5mC]*d[5mC]*dA*dT*dA*kG*kA*kA; antisense) [compound 790626] |  | 0
799214 (kT*kT*k[5mC]*dT*dT*dG*dT*dT*dT*dA*dT*dA*d[5mC]*kA*k[5mC]*kA; antisense) [compound 799214] |  | 46
799400 (antisense kG*kG*kA*dA*dA*dA*d[5mC]*d[5mC]*dT*d[5mC]*d[5mC]*dA*dA*kA*kT*kT) [compound 799400] |  | 0
799234 (kA*kA*kA*d[5mC]*dA*dT*dT*d[5mC]*dA*dG*d[5mC]*dT*dA*kG*kG*kT; antisense) [compound 799234] |  | 13
799004 (antisense kG*k[5mC]*kA*d[5mC]*dA*d[5mC]*dA*d[5mC]*dA*dG*d[5mC]*d[5mC]*dG*k[5mC]*kA*k[5mC]) [compound 799004] |  | 0
799002 (antisense kA*k[5mC]*kA*dG*d[5mC]*d[5mC]*dG*d[5mC]*dA*d[5mC]*dA*d[5mC]*dT*k[5mC]*kA*k[5mC]) [compound 799002] | 15 | 
798690 (antisense kG*kG*k[5mC]*dT*d[5mC]*d[5mC]*dT*d[5mC]*d[5mC]*dA*dG*dA*dG*kA*k[5mC]*kG) [compound 798690] |  | 29
798974 (antisense k[5mC]*kT*k[5mC]*dT*dT*d[5mC]*d[5mC]*dT*dA*dT*d[5mC]*dA*dG*kG*kG*kT) [compound 798974] | 12 | 
798677 (antisense kA*k[5mC]*kA*d[5mC]*d[5mC]*dA*dT*dG*dA*dA*dG*dA*dA*kG*kT*k[5mC]) [compound 798677] |  | 36

same assay, conditions: Hep3B cells, electroporation, 10,000 nM antisense oligonucleotide, approximately 24 hours, RTS5062, relative to untreated control cells

Substance | % inhibition of SMAD7 mRNA expression [%]
799541 (kT*kT*kA*dA*dT*dG*dA*d[5mC]*dA*d[5mC]*d[5mC]*dA*dA*kA*kG*kT; antisense) [compound 799541] | 55

same assay, conditions: SMAD7 mRNA, Hep3B cells, 10,000 nM antisense oligonucleotide, electroporation, approximately 24 hours, primer probe set RTS5062, relative to untreated control cells

Substance | % Inhibition [%]
800998 (antisense k[5mC]*k[5mC]*k[5mC]*dG*d[5mC]*dT*d[5mC]*dT*d[5mC]*dA*dG*d[5mC]*d[5mC]*kA*kG*kG) [compound 800998] | 39
772535 (antisense k[5mC]*k[5mC]*kG*d[5mC]*dA*d[5mC]*dA*d[5mC]*d[5mC]*dA*dT*dG*dA*kA*kG*kA) [compound 772535] | 29
772635 (kA*kA*kG*d[5mC]*dT*dG*dA*dT*d[5mC]*dT*dG*d[5mC]*dA*k[5mC]*kG*kG; antisense) [compound 772635] | 43
829791 (kT*kT*k[5mC]*d[5mC]*d[5mC]*dG*dT*dA*dA*dG*dA*dT*dT*k[5mC]*kA*k[5mC]; antisense) [compound 829791] | 38

same assay, conditions: SMAD7 mRNA, Hep3B cells, electroporation with 10,000 nM antisense oligonucleotide, approximately 24 hours, primer probe set RTS5062, relative to untreated control cells

Substance | % Inhibition [%]
829891 (antisense kA*kT*k[5mC]*dT*dG*d[5mC]*dA*d[5mC]*dG*dG*dT*dA*dA*kA*kG*k[5mC]) [compound 829891] | 25
829977 (kT*kA*kG*d[5mC]*dT*dG*dT*d[5mC]*dA*dG*dA*dT*dA*kA*kA*k[5mC]; antisense) [compound 829977] | 35
829849 (antisense kT*kG*kT*dT*dG*dT*d[5mC]*d[5mC]*dG*dA*dA*dT*dT*kG*kA*kG) [compound 829849] | 49
829920 (antisense kA*kT*kA*d[5mC]*dG*dA*dG*dT*dG*dT*dA*dT*dG*kA*kG*kT) [compound 829920] | 30
829800 (kG*kT*k[5mC]*dG*dG*d[5mC]*dT*dA*dA*dG*dG*dT*dG*kA*kT*kG; antisense) [compound 829800] | 30
829922 (antisense kG*kT*kA*dT*d[5mC]*dA*dT*dA*d[5mC]*dG*dA*dG*dT*kG*kT*kA) [compound 829922] | 56
829913 (antisense k[5mC]*k[5mC]*kT*dT*dG*dG*dG*dT*dT*dA*dT*dG*dA*k[5mC]*kG*kG) [compound 829913] | 40
